Data taken from patent US20090286797A1, “Novel Quinoxaline Derivatives and Their Medical Use” (priority 2005, published 2009).

Target: T1, human glutamate receptor GluR1-flip (Homo sapiens, UniProt P42261)
T1 construct: expressed in transfected cells; host or cells: Chinese Hamster Ovary (CHO) cells
Test: Whole cell patch clamp on CHO cells expressing human GluR1-flip; glutamate-induced current desensitization
Format: cell-based
Details: 1 mM test compound co-applied with 10 mM L-glutamate after 30 seconds pre-incubation, hGluR1(i), whole cell voltage clamp
Excerpt: In this experiment we investigated the influence of the test compounds on the membrane currents when determined electrophysiologically on Chinese Hamster Ovary (CHO) cells capable of expressing the human glutamate receptor GluR1-flip, obtained essentially as described by Fletcher E J & Lodge D, Pharmacol. Ther. 1996 70 (1) 65-89, the current through the channels being recorded using patch clamp technique in whole cell voltage clamp mode.
Current responses were induced by applying L-glutamate at a saturating concentration of 10 mM, and the modulatory effect of the test compound was evaluated by co-applying the test compound and L-glutamate upon a 30 seconds pre-incubation period, and comparing with […].

T1 sequence (P42261 19-906 isoform P42261-2 limits assumed): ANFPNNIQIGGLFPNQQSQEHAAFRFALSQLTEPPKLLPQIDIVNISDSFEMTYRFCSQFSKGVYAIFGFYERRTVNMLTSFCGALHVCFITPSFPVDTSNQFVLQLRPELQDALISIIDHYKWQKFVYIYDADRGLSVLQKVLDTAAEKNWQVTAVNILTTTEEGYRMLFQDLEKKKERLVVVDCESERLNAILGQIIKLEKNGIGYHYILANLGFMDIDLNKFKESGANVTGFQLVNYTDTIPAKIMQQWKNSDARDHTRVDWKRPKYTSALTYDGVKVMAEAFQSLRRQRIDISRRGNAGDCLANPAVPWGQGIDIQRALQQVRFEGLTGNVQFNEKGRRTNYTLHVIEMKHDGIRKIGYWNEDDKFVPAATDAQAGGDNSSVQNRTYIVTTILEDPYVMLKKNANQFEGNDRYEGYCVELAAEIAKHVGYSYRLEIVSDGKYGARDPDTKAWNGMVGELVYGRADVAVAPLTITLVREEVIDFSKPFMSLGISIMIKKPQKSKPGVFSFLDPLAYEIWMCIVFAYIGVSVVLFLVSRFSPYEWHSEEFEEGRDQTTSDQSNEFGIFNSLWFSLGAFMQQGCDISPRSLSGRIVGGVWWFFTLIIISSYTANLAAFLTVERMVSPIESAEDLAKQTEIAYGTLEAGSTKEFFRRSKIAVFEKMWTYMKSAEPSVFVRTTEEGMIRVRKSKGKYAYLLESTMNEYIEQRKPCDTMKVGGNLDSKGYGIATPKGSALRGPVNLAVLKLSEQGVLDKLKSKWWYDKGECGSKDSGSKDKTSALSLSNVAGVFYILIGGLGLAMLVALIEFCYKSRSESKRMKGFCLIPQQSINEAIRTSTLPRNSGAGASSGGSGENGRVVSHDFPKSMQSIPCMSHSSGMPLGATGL

Q: `CC1CCCN(C(=O)c2ccc3nccnc3c2)C1` (racemic) [Compound A4, (±)-(3-Methyl-piperidin-1-yl)-guinoxalin-6-yl-methanone] was tested. Which degree of desensitization did it give?
A: 95.2+/−0.2%

Q: With `O=C(c1ccc2nccnc2c1)N1CCCCC1` [Reference compound, Piperidin-1-yl-quinoxalin-6-yl-methanone] as the compound, how does the degree of desensitization read?
A: 98.0+/−0.8%
